This note sets out measurements from paper PMC10931659, “Structural Characterization and Functional Analysis of Mevalonate Kinase from Tribolium castaneum (Red Flour Beetle)” (International Journal of Molecular Sciences, 2024).

The target of series [1] is T1, TcMevK (Tribolium castaneum, UniProt D2A4R0, V264A).
T1 construct: gene AUGUSTUS-3.0.2_15408; N-terminal His6 tag (pET28a-derived vector), expressed in E. coli BL21(DE3), Ni-chelating and Superdex 200 purified
T1 sequence (D2A4R0 1-396 V264A): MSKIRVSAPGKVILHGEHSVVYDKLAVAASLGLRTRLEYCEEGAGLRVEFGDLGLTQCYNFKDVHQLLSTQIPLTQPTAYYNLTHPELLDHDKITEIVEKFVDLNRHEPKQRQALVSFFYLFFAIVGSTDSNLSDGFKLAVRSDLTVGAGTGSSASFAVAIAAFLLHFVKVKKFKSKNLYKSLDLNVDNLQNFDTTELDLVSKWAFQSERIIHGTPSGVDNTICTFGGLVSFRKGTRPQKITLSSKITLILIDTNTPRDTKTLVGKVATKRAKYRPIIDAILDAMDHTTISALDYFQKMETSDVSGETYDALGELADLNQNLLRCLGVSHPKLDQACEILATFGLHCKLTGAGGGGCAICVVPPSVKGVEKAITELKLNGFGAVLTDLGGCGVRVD
The series can be described thus: intrinsic fluorescence quenching, excitation […] nm. The series is classed as binding. The following applies: read-out: KD Value for Mev.

In series [2] the target is T2, TcMevK (Tribolium castaneum, UniProt D2A4R0, K234A).
T2 construct: gene AUGUSTUS-3.0.2_15408; N-terminal His6 tag (pET28a-derived vector), expressed in E. coli BL21(DE3), Ni-chelating and Superdex 200 purified
T2 sequence (D2A4R0 1-396 K234A): T1 sequence (D2A4R0 1-396 V264A)
The series can be described thus: intrinsic fluorescence quenching, excitation […] nm. The series is classed as binding. The following applies: read-out: KD Value for Mev.

The target of series [3] is T3, TcMevK (Tribolium castaneum, UniProt D2A4R0, V21A).
T3 construct: gene AUGUSTUS-3.0.2_15408; N-terminal His6 tag (pET28a-derived vector), expressed in E. coli BL21(DE3), Ni-chelating and Superdex 200 purified
T3 sequence (D2A4R0 1-396 V21A): T1 sequence (D2A4R0 1-396 V264A)
As to the kind of experiment: intrinsic fluorescence quenching, excitation […] nm. The series is classed as binding. The following applies: read-out: KD Value for Mev.

The target of series [4] is T4, TcMevK (Tribolium castaneum, UniProt D2A4R0, S217A).
T4 construct: gene AUGUSTUS-3.0.2_15408; N-terminal His6 tag (pET28a-derived vector), expressed in E. coli BL21(DE3), Ni-chelating and Superdex 200 purified
T4 sequence (D2A4R0 1-396 S217A): T1 sequence (D2A4R0 1-396 V264A)
The series can be described thus: intrinsic fluorescence quenching, excitation […] nm. The class given is binding. The following applies: read-out: KD Value for Mev.

Series [5] deals with T5, TcMevK (Tribolium castaneum, UniProt D2A4R0, K11A).
T5 construct: gene AUGUSTUS-3.0.2_15408; N-terminal His6 tag (pET28a-derived vector), expressed in E. coli BL21(DE3), Ni-chelating and Superdex 200 purified
T5 sequence (D2A4R0 1-396 K11A): T1 sequence (D2A4R0 1-396 V264A)
The series can be described thus: intrinsic fluorescence quenching, excitation […] nm. The class given is binding. The following applies: read-out: KD Value for Mev.

Series [6] concerns the target T6, TcMevK (Tribolium castaneum, UniProt D2A4R0).
T6 construct: gene AUGUSTUS-3.0.2_15408; N-terminal His6 tag (pET28a-derived vector), expressed in E. coli BL21(DE3), Ni-chelating and Superdex 200 purified
T6 sequence (D2A4R0 1-396): T1 sequence (D2A4R0 1-396 V264A)
As to the kind of experiment: intrinsic fluorescence quenching, excitation […] nm. The series is classed as binding. The following applies: read-out: KD Value for Mev.

Series [7] addresses T7, TcMevK (Tribolium castaneum, UniProt D2A4R0, D220A).
T7 construct: gene AUGUSTUS-3.0.2_15408; N-terminal His6 tag (pET28a-derived vector), expressed in E. coli BL21(DE3), Ni-chelating and Superdex 200 purified
T7 sequence (D2A4R0 1-396 D220A): T1 sequence (D2A4R0 1-396 V264A)
The series can be described thus: intrinsic fluorescence quenching, excitation […] nm. The series is classed as binding. The following applies: read-out: KD Value for Mev.

Substrate in the series “purified protein”: C[C@@](O)(CCO)CC(=O)O
The series can be described thus: purified protein. The class given is biochemical, Tribolium castaneum. The following applies: 5 mM ATP, 16 mM MgCl2, 75 mM KCl; Mev 0–500 μM; pH and temperature not stated for this assay.

A word on the Kd: it is the constant that tells how readily two partners part at equilibrium. Regarding `C[C@@](O)(CCO)CC(=O)O` [mevalonate], the equilibrium dissociation constant (Kd) on TcMevK [1] was 57.1 ± 1.83 µM; on TcMevK [2], 89.5 ± 2.45 µM; on TcMevK [3], 51.7 ± 2.16 µM; at TcMevK [4], 70.2 ± 1.06 µM; on TcMevK [5], 75.8 ± 0.84 µM; at TcMevK [6], 30 ± 0.93 µM. Also, on TcMevK [7], the Kd is 47.5 ± 2.17 µM.

B1: TcMevK (Tribolium castaneum) (protein)
chain: T1 sequence (D2A4R0 1-396 V264A)
notes: N-terminal His6 tag (pET28a-derived vector), expressed in E. coli BL21(DE3), Ni-chelating and Superdex 200 purified
The Km is the concentration of substrate that gives half-maximal velocity. On to B1, for which the Km in “purified protein” worked out at 32.71 ± 1.09 µM.
